In PMC3871636 (PLoS ONE, 2013):

Key:
[1] = target: double-labeled CYP3A4 (C64/C468)-DY/ER (Homo sapiens, UniProt P08684, S18F, form not given); test: Time-resolved LRET (phosphorescence lifetime measurements)
Description: (§1) The excitation wavelength was set to 540 nm.

[2] = target: double-labeled CYP3A4 (C64/C468)-ER/DY (Homo sapiens, UniProt P08684, S18F, form not given); test: as above
Description: as §1

[3] = target: T1, double-labeled CYP3A4 C377/C468-DY/ER (Homo sapiens, UniProt P08684, S18F, form not given); test: as above
T1 sequence (P08684 13-503 S18F, form open): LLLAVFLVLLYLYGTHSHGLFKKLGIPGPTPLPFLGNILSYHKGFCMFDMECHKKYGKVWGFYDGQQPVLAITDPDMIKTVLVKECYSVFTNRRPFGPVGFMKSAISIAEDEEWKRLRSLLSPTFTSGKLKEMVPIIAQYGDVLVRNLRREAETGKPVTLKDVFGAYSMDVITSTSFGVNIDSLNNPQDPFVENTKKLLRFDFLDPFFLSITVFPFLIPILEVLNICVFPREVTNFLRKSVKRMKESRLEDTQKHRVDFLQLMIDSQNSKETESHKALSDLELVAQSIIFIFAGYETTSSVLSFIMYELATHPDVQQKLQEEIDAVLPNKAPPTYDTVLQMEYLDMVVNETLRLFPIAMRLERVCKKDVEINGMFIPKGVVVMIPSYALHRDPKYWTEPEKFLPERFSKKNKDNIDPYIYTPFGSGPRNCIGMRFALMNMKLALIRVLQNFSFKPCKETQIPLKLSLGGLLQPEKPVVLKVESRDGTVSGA
Description: as §1

[4] = target: T2, double-labeled CYP3A4 C64/C121-DY/ER (Homo sapiens, UniProt P08684, A121C/C239S/C377S/C468A/C98S/S18F); test: as above; conditions: same ligand concentrations
T2 sequence (P08684 with tags, fused parts or gaps S18F/C98S/A121C/C239S/C377S/C468A limits assumed): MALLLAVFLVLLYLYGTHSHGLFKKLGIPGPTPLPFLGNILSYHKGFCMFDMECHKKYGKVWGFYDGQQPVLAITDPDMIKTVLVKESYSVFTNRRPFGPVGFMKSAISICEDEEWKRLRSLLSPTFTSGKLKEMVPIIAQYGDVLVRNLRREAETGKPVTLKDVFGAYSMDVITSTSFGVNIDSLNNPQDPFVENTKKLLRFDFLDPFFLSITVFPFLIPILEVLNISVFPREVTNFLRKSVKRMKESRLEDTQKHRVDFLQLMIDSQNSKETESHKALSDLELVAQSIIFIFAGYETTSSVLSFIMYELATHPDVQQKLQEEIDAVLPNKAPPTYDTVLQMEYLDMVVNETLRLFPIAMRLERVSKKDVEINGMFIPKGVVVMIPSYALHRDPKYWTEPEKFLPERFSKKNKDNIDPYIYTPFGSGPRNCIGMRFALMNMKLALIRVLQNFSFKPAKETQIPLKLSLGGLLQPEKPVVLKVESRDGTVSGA
Procedure: (§2) All absorbance and fluorescence assays (including the time-resolved fluorescence measurements) were performed at a protein concentration ≤1 µM at 25°C with continuous stirring. Absorbance spectra were recorded with an S2000 rapid scanning CCD spectrometer (Ocean Optics). Ligand binding assays were done in 100 mM Na-Hepes buffer, pH 7.4, containing 0.5 mM EDTA.
(§3) Fluorescence-based ligand binding assays were done under anaerobic conditions. Anaerobiosis was achieved using an oxygen-scavenging system consisting of protecatechuate-3,4-dioxygenase (0.5 units/ml) and 5 mM protocatechuic acid. The steady state and time-resolved phosphorescence measurements were performed with the use of a Cary Eclipse fluorescence spectrophotometer (Varian/Agilent Technologies). The excitation wavelength was set to 540 nm. Spectra were taken from 650 to 860 nm with 100 µs delay.
The treatment of the time-resolved decay traces was performed using a bi-exponential approximation. The efficiency of time-resolved LRET was calculated using the equation [drawing 2] (Eq.2)
In this equation τda and τd designate the average lifetime of the excited state of the donor in the presence and absence of the acceptor, respectively. These average lifetimes are determined as τ = α1τ1+α2τ2, where τ1,2 and α1,2 stay for the lifetime and the relative amplitude of each of the two exponential terms. In our calculations of the lifetime in double-labeled C64/C468, C377/C468 and C64/C121 proteins we used the lifetimes of phosphorescence measured with the respective proteins labeled with ERIA at a label:protein ratio 2∶1 as the estimates of τd.
(§4) Distances were calculated using the equation: [drawing 3] (Eq.3) where R 0 is the Förster distance, and R is the distance between the donor and acceptor. R 0 was calculated with the use of PhotoChemCad software. In these calculations, we used the values of the orientation factor (κ^2) and the refractive index (n) of 0.667 and 1.4, respectively.

[5] = target: CYP3A4 (double-labeled (C64/C468)-DY/ER) (Homo sapiens, UniProt P08684, form not given/S18F); test: Steady-state LRET titration (delayed emission); format: binding; conditions: human, purified double-labeled CYP3A4 (C64/C468)-DY/ER protein, pH 7.4; (C64/C468)-DY/ER; LRET titration; read-out: K d, steady-state fluorescence
Chain of CYP3A4 (double-labeled (C64/C468)-DY/ER) (P08684 13-503 S18F, form open): as the sequence (P08684 13-503 S18F, form open) above
Procedure: as §2, §3
(§5) Quantitative interpretation of LRET results was also based on the use of PCA applied to a series of emission spectra normalized on integral intensity. […] Intensity of the donor and acceptor fluorescence obtained in this way were used in determination of the efficiency of steady-state LRET using the equation [drawing 1] (Eq.1) where I ad is emission intensity of the acceptor, I da is the residual donor emission in the presence of acceptor (I da), Φ a and Φ d are the quantum yield of the fluorescence of acceptor and the quantum yield of the phosphorescence of donor, respectively.
as §4
(§6) When fitting the results of titration experiments, where the changes in the monitored signal A S (fraction of the enzyme in the high-spin state, intensity or the lifetime of the donor phosphorescence at a given substrate concentration) were assumed to be proportional to [ES], this equation was complemented with the offset A 0 and the scaling factor A max to yield the following relationship: [drawing 5] (Eq.5)

[6] = target: T1, double-labeled CYP3A4 C377/C468-DY/ER; test: Steady-state LRET titration (delayed emission); format: binding; conditions: Table S2, protein C377/C468-ER/DY
Procedure: as §2, §3, §5, §4, §6

[7] = target: T2, double-labeled CYP3A4 C64/C121-DY/ER; test: Steady-state LRET titration (delayed emission); conditions: Table S2; protein C64/C121-ER/DY; same ligand concentrations
Procedure: as §2, §3, §5, §4, §6

CYP3A4 (C64/C468 mutant) = CYP3A4 (C64/C468 mutant) (Homo sapiens, UniProt P08684, form not given/S18F); test: Ligand-induced spin shift, absorbance titration; format: binding; conditions: human, purified CYP3A4(C64/C468) mutant protein, pH 7.4; read-out: K D or S 50
Chain of CYP3A4 (C64/C468 mutant) (P08684 13-503 S18F, form open): as above
Procedure: as §2
(§7) Absorbance spectra obtained in titration experiments were analyzed with a principal component analysis (PCA) procedure complemented with least-square approximation of the principal vectors with a combination of the prototypical spectra of the CYP3A4 low-spin, high-spin and Type II-substrate-bound ferric CYP3A4 P450 states as described, [31].
as §6

[8] = target: CYP3A4 (C377/C468 mutant) (Homo sapiens, UniProt P08684, form not given/S18F); test: Ligand-induced spin shift, absorbance titration; format: binding; conditions: human, purified CYP3A4(C377/C468) mutant protein, pH 7.4; read-out: K D or S 50
Chain of CYP3A4 (C377/C468 mutant) (P08684 13-503 S18F, form open): as above
Procedure: as §2, §7, §6

[9] = (C64/C468)-DY/ER, nearly-saturating ligand: ANF 100 µM, bromocriptine 2.5 µM, cholesterol 50 µM, testosterone 100 µM
[10] = Table S1, (C64/C468)-DY/ER, same ligand concentrations
[11] = Table S2, C64/C468-DY/ER, same ligand concentrations
[12] = (C64/C468)-ER/DY, nearly-saturating ligand: ANF 100 µM, bromocriptine 2.5 µM, cholesterol 50 µM, testosterone 100 µM
[13] = Table S1, (C64/C468)-ER/DY, same ligand concentrations
[14] = Table S2, C64/C468-ER/DY, same ligand concentrations
[15] = Table S1, protein (C377/C468)-ER/DY, same ligand concentrations
[16] = Table S2, protein C377/C468-ER/DY, same ligand concentrations
[17] = Table S1, protein (C64/C121)-ER/DY
[18] = Table S2, protein C64/C121-ER/DY

Chain of double-labeled CYP3A4 (C64/C468)-DY/ER (P08684 13-503 S18F, form open): as above
Chain of double-labeled CYP3A4 (C64/C468)-ER/DY (P08684 13-503 S18F, form open): as above

## O=c1cc(-c2ccccc2)oc2c1ccc1ccccc12 [ANF, α-naphthoflavone]
[1]; [9]
  ΔELT (change in LRET efficiency), lifetime measurements: −6.8±3%
  ΔR (change in interprobe distance), lifetime measurements: 1.8±0.7 Å
[1]; Table S1, (C64/C468)-DY/ER, 1-PB 40 µM, ANF 100 µM, BCT 2.5 µM, cholesterol 100 µM, testosterone 100 µM, bi-exponential fit
  τ1 (phosphorescence decay time with ligand): 54 ± 1 µs
[1]; [10]
  F1 (fraction of first exponential): 45 ± 5%
  τ2 (phosphorescence decay time with ligand): 231 ± 15 µs
  τav (average phosphorescence lifetime with ligand): 154 ± 4 µs
[1]; Table S2, C64/C468-DY/ER, 1-PB 40 µM, ANF 100 µM, BCT 2.5 µM, cholesterol 100 µM, testosterone 100 µM
  E (LRET efficiency with ligand), lifetime measurements: 34 ± 2%
[1]; [11]
  R (interprobe distance with ligand), lifetime measurements: 38.6 ± 0.5 Å
  ΔR, lifetime measurements: 1.8 ± 0.5 Å
[2]; [12]
  ΔELT (change in LRET efficiency), lifetime measurements: −14.5±1%
  ΔR (change in interprobe distance), lifetime measurements: 4.1±0.2 Å
[2]; Table S1, (C64/C468)-ER/DY, 1-PB 40 µM, ANF 100 µM, BCT 2.5 µM, cholesterol 100 µM, testosterone 100 µM, bi-exponential fit
  τ1 (phosphorescence decay time with ligand): 53 ± 2 µs
[2]; [13]
  F1 (fraction of first exponential): 34 ± 1%
  τ2 (phosphorescence decay time with ligand): 216 ± 3 µs
  τav (average phosphorescence lifetime with ligand): 168 ± 1 µs
[2]; Table S2, C64/C468-ER/DY, 1-PB 40 µM, ANF 100 µM, BCT 2.5 µM, cholesterol 100 µM, testosterone 100 µM
  E (LRET efficiency with ligand), lifetime measurements: 28 ± 1%
[2]; [14]
  R (interprobe distance with ligand), lifetime measurements: 40.4 ± 0.1 Å
  ΔR, lifetime measurements: 4.1 ± 0.1 Å
[3]; Table S1, protein (C377/C468)-ER/DY, 1-PB 40 µM, ANF 100 µM, BCT 2.5 µM, cholesterol 100 µM, testosterone 100 µM, bi-exponential fit
  τ1 (phosphorescence decay time with ligand): 42 ± 10 µs
[3]; [15]
  F1 (fraction of first exponential): 28 ± 5%
  τ2 (phosphorescence decay time with ligand): 188 ± 18 µs
  τav (average phosphorescence lifetime with ligand): 147 ± 8 µs
[3]; Table S2, protein C377/C468-ER/DY, 1-PB 40 µM, ANF 100 µM, BCT 2.5 µM, cholesterol 100 µM, testosterone 100 µM
  E (LRET efficiency with ligand), lifetime measurements: 19 ± 4%
[3]; [16]
  R (interprobe distance with ligand), lifetime measurements: 43.9 ± 2.3 Å
  ΔR, lifetime measurements: 7.1 ± 2.3 Å
[4]; [17]
  F1 (fraction of first exponential): 43 ± 7%
  τ2 (phosphorescence decay time with ligand): 232 ± 22 µs
  τav (average phosphorescence lifetime with ligand): 159 ± 7 µs
[4]; [18]
  R (interprobe distance with ligand), lifetime measurements: 36.4 ± 0.5 Å
  ΔR, lifetime measurements: 1.3 ± 0.5 Å
[5]
  Kd: 9.1 ± 2.9 µM
[6]; 1-PB 40 µM, ANF 100 µM, BCT 2.5 µM, cholesterol 100 µM, testosterone 100 µM
  E (LRET efficiency with ligand), steady-state measurements: 14 ± 0%
[6]; same ligand concentrations
  R (interprobe distance with ligand), steady-state measurements: 45.2 ± 0.1 Å
  ΔR, steady-state measurements: 0.5 ± 0.1 Å
[7]
  R (interprobe distance with ligand), steady-state measurements: 43.4 ± 0.1 Å
  ΔR, steady-state measurements: 1.1 ± 0.1 Å
CYP3A4 (C64/C468 mutant)
  Kd: 5.1 ± 1.5 µM
[8]
  Kd: 6.2 ± 1.2 µM
